Patent US20250199015A1, “CYCLIN-DEPENDENT KINASE 2 INHIBITORS FOR MEDICAL TREATMENT” (INCYCLIX BIO, LLC, priority 2022, published 2025)
Several values for one entry are separate records, joined by “and”; a condition that tells them apart may be missing. Equal entries are not always repeated. Structures can show the parent of a compound that is named as a salt. Marks after values point to notes of the source that are not given here.

Assays:
[1] = Dynamic Vapor Sorption (DVS); type: physicochemical; settings: for DVS uptake, first sorption cycle / DVS uptake, second sorption cycle: 25° C., to 90% RH
Protocol: Approximately 10-20 mg of sample was placed into a mesh vapor sorption balance pan and loaded into a DVS Advantage dynamic vapor sorption balance by Surface Measurement Systems. The sample was subjected to a ramping profile from 40-90% relative humidity (RH) at 10% increments, maintaining the sample at each step until a stable weight had been achieved (dm/dt 0.004%, minimum step length 30 minutes, maximum step length 500 minutes) at 25° C. After completion of the sorption cycle, the sample was dried using the same procedure to 0% RH and then a second sorption cycle back to 40% RH. Two cycles were performed. The weight change during the sorption/desorption cycles were plotted, allowing for the hygroscopic nature of the sample to be determined. XRPD analysis was then carried out on any solid retained.

[2] = 7-day indicative stability (XRPD, HPLC purity); type: physicochemical; settings: for change in form after 7 days / purity change after 7 days: ambient
Protocol: The stability of HCl Pattern 1 was determined using the following procedure. HCl Pattern 1 (30 mg) was weighed into 3×2 mL glass vials. The three vials were then stored under the following conditions for 7-days: • Ambient temperature, humidity and light (open vial); • 40° C./75% RH (open vial); • 80° C. (closed vial).
After 7 days, each sample was analyzed by: XRPD to assess form changes and HPLC to determine the purity of the samples.
After 7 days at each storage condition, the solids were analyzed by XRPD to assess any changes in solid form and by HPLC to determine purity.

[3] = Solvate formation or form change in ethanol (thermal cycling); type: physicochemical; settings: three days, 40° C./5° C.
Protocol: HCl Pattern 1 was stirred in ethanol to assess any solvation or form change in the solvent system. The following procedure was carried out. HCl Pattern 1 (20 mg) was suspended in 1 mL of ethanol. The suspension was thermally cycled for three days according to the following cycle: • Heat to 40° C. at a rate of 0.1° C./min; • Hold at 40° C. for one hour; • Cool to 5° C. at a rate of 0.1° C./min; • Hold at 5° C. for one hour.
After three days, observations were recorded, and solids were isolated by centrifugation. Wet solids were analyzed by XRPD.

[4] = Thermodynamic solubility in pH 1, 4.5 and 6.8 buffers; type: physicochemical
Protocol: The thermodynamic solubility of HCl Pattern 1 was determined in duplicate according to the following procedure. HCl Pattern 1 (20 mg) was weighed into 6×2 mL glass vials. Then, 1000 μL of pH 1 hydrochloride, pH 4.5 acetate and pH 6.8 phosphate buffers were added to individual vials in 100 μL aliquots to give white slurries at each pH value. […] The pH was re-recorded and adjusted where necessary. The samples were isolated by centrifuge filtration. […] The concentrations of the saturated solutions were determined by HPLC.
Buffer systems were added in 250 μL aliquots up to a total volume of 1 mL. The pH of each slurry was recorded and adjustments were made to the pH 1 system. No initial adjustment was made to the pH 4.5 or 6.8 system. An aliquot of the slurry was analyzed by XRPD. […] The pH was checked and adjusted where required. The slurries were filtered by centrifugation. The solids were isolated and analyzed by XRPD. The solutions were analyzed by HPLC to determine concentration.

[5] = Hydration study in ethanol:water mixtures; type: physicochemical; settings: 24 hours; for XRPD: solids from slurry
Protocol: A hydration study was carried out on the material according to the following procedure. […] Ethanol: water solutions (Table 77) were added in 250 μL aliquots to a total volume of 1 mL. The slurries were stirred at 25° C. for 24 hours. After 24 hours the slurries were filtered by centrifugation. The solids were isolated and analyzed by XRPD. The solution was isolated and analyzed by HPLC to determine concentration.

[6] = Disproportionation study in water; type: physicochemical
Protocol: A study disproportionation was carried out using the following procedure. […] The pH was recorded, and the suspension was stirred for ca. 24 hours at 25° C. After 24 hours the pH was recorded, and the slurry was filtered by centrifugation. The solids were isolated and analyzed by XRPD. The solution was isolated and analyzed by HPLC to determine concentration.

[7] = Thermodynamic solubility in pH 1, 4.5 and 6.8 buffers; type: physicochemical; settings: for Solubility: 25° C., 24 hours
[8] = Salt screen storage at 40° C./75% RH, XRPD form; type: physicochemical; settings: after storage at 40° C./75% RH, scale up from ethyl acetate
Protocol: XRPD analysis was carried out on any isolated solids or gums as described in Example 10 below. The XRPD plate, and the isolated solids, were dried at 40° C. for ca. 24 hours and re-analyzed by XRPD. The XRPD plate was further dried at 40° C./75% RH for ca. 24 hours and XRPD analysis was repeated.
After three days, observations were recorded and solids were isolated by centrifugation. The wet solids were analyzed by XRPD. Solids were dried at 40° C. under vacuum for 72 hours and re-analyzed by XRPD. Solids were dried at 40° C./75% RH for 18 hours and re-analyzed by XRPD.

[9] = system: caspase 3/7 in H526 cells; assay: CaspaseGlo-3/7 activation; type: cell-based, human
Protocol: (§1) Plates were removed from incubator and treated with CaspaseGlo-3/7 (Promega, Inc) following manufacturer specifications. Plates were then read on a Biotech luminometer with 1 sec/well integration. Results were converted to Microsoft Excel and transferred to GraphPad Prism for Analysis (FIG. 22D).
as §1, with “from the” for “from”, “incubator at each specified timepoint” for “incubator”, “on” for “on a”, “27A-C).” for “22D).”

[10] = system: caspase 3/7 in Hs68 cells; assay: CaspaseGlo-3/7 in normal fibroblasts; type: cell-based; settings: 300 pM to 10 μM; 24, 48 or 72 hours
Protocol: The Hs68 Normal foreskin fibroblast cell line was grown in DMEM-high glucose/1× Glutamax/10% fetal bovine serum and was plated at 1,000 cells/well in Corning 96 well white wall/clear bottom tissue culture treated plates. […] Plates were removed from incubator at each specified timepoint and treated with CaspaseGlo-3/7 (Promega, Inc) following manufacturer specifications. Plates were then read on Biotech luminometer with 1 sec/well integration. Results were converted to Microsoft Excel and transferred to GraphPad Prism for Analysis (FIG. 5A-C).

[11] = 7 days, 40° C./75% RH (open vial)
[12] = 7 days, ambient temperature, humidity and light (open vial)
[13] = pH 6.8 (Phosphate) buffer, 25° C., 24 hours
[14] = residual solids, pH 1 (HCl) buffer, 25° C., 24 hours

Compound: NS(=O)(=O)c1ccc(Nc2ncc3cc4n(c3n2)C2(CCCCC2)C(=O)NN4)cc1 [HCl Pattern 1]
- form post DVS by XRPD [1]: no observable form change had occurred
- hygroscopicity (DVS) [1]: moderately hygroscopic
- DVS uptake, first sorption cycle [1]: 5.15%
- DVS uptake, second sorption cycle [1]: 5.10%
- HPLC Purity [2, 11]: 97.98 % w/w
- Observation [2, 11]: White Solid
- XRPD [2, 11]: HCl Pattern 1
- HPLC Purity ([2]; 7 days, 80° C. (closed vial)): 96.97 % w/w
- Observation ([2]; 7 days, 80° C. (closed vial)): White Solid
- XRPD ([2]; 7 days, 80° C. (closed vial)): HCl Pattern 1
- HPLC Purity [2, 12]: 98.02 % w/w
- Observation [2, 12]: Yellow Solid
- XRPD [2, 12]: HCl Pattern 1
- change in form after 7 days ([2]; 40° C./75% RH, 80° C.): no observable change in form
- purity change after 7 days ([2]; 40° C./75% RH, 80° C.): decrease in purity was noted for all samples
- form after thermal cycling in ethanol [3]: produced HCl Pattern 2
- Solubility ([4]; pH 1 (HCl) buffer, 25° C., 24 hours): 2.7 µg/mL
- solubility at 24 h ([4]; pH 1 hydrochloride buffer, 25 °C, pH 1, simulated gastric fluid, thermodynamic from solid, pH 1 (HCl) buffer, 24 hours): 3.8 µg/mL
- Solubility ([4]; pH 4.5 (Acetate) buffer, 25° C., 24 hours): <LOQ
- residual solids by XRPD ([4]; pH 4.5, 25° C., 24 hours): formation of free base
- Solubility [4, 13]: <LOQ
- residual solids by XRPD ([4]; pH 6.8, 25° C., 24 hours): formation of free base
- XRPD [4, 14]: 1

Compound: NS(=O)(=O)c1ccc(Nc2ncc3cc4n(c3n2)C2(CCCCC2)C(=O)NN4)cc1.O=P(O)(O)O [phosphate Pattern 7]
- form post DVS by XRPD [1]: no observable form change had occurred
- hygroscopicity (DVS) [1]: moderately hygroscopic
- DVS uptake, first sorption cycle [1]: 4.76%
- DVS uptake, second sorption cycle [1]: 5.18%
- DVS Moisture Uptake at 80% RH ([1]; first sorption cycle): 4.76 wt. %
- XRPD ([1]; post DVS): Phosphate Pattern 7*
- DVS Moisture Uptake at 80% RH ([1]; second sorption cycle): 5.18 wt. %
- HPLC Purity ([2]; 7 Day Stability, 40° C./75% RH): 89.63 % area
- HPLC Purity ([2]; 7 Day Stability, 80° C.): 98.08 % area
- HPLC Purity ([2]; 7 Day Stability, Ambient, Light): 97.90 % area
- HPLC Purity [2, 11]: 89.63 % w/w
- Observation [2, 11]: Faint Pink Solid
- XRPD [2, 11]: Phosphate Pattern 7*
- HPLC Purity ([2]; 7 days, 80° C. (closed vial)): 98.08 % w/w
- Observation ([2]; 7 days, 80° C. (closed vial)): White Solid
- XRPD ([2]; 7 days, 80° C. (closed vial)): Phosphate Pattern 7*
- HPLC Purity [2, 12]: 97.87 % w/w
- Observation [2, 12]: Faint Yellow Solid
- XRPD [2, 12]: Phosphate Pattern 7*
- change in form after 7 days ([2]; 40° C./75% RH, 80° C.): no observable change in form
- purity change after 7 days ([2]; 40° C./75% RH, 80° C.): significant decrease in purity
- form after stirring in ethanol:water mixtures ([5]; 25° C.): disproportionation of the salt to free base material
- Solubility ([5]; Ethanol:Water (63.6:36.4 % v/v), Calc Aw 0.745, 25° C.): 987.8 µg/mL
- Solubility ([5]; Ethanol:Water (92.9:7.1 % v/v), Calc Aw 0.507, 25° C.): 1664.8 µg/mL
- Solubility ([5]; Ethanol:Water (98.4:1.6 % v/v), Calc Aw 0.257, 25° C.): 1217 µg/mL
- XRPD ([5]; Ethanol:Water (63.6:36.4), Aw 0.745, 25° C.): Free Base Pattern 2
- XRPD ([5]; Ethanol:Water (92.9:7.1), Aw 0.507, 25° C.): Free Base Pattern 3
- XRPD ([5]; Ethanol:Water (98.4:1.6), Aw 0.257, 25° C.): Free Base Pattern 3
- form after stirring in water ([6]; 25° C., ca. 24 hours): indicative of disproportionation
- XRPD ([6]; slurry at 25° C. in water, 24 hours): Free Base Pattern 10
- XRPD ([4]; 24 h Solubility at 37° C., pH 4.5, residual solids): Free Base Pattern 1
- XRPD ([4]; 24 h Solubility at 37° C., pH 6.8, residual solids): Free Base Pattern 1
- thermodynamic solubility in three buffer systems ([4]; pH 1, 4.5, 6.8): low aqueous solubility
- residual solids by XRPD ([4]; pH 1, 25° C., 24 hours): mixture of HCl Pattern 1 and free base
- 24 h Solubility at 37° C., Concentration ([4]; pH 4.5): 5.2 µg/mL
- residual solids by XRPD ([4]; pH 4.5, 25° C., 24 hours): dissociation to free base
- 24 h Solubility at 37° C., Concentration ([4]; pH 6.8): 4.2 µg/mL
- Solubility [4, 13]: 4.2 µg/mL
- residual solids by XRPD ([4]; pH 6.8, 25° C., 24 hours): dissociation to free base
- XRPD [4, 14]: HCl Pattern 1
- XRPD ([4]; residual solids, pH 4.5 (Acetate) buffer, 25° C., 24 hours): Free base
- XRPD ([4]; residual solids, pH 6.8 (Phosphate) buffer, 25° C., 24 hours): Free base
- XRPD ([7]; 24 h Solubility at 37° C., pH 1.2, residual solids): HCl Pattern 1
- Solubility ([7]; pH 1 (HCl) buffer): 3.8 µg/mL and 2.7 µg/mL
- Solubility ([7]; pH 4.5 (Acetate) buffer): 5.8 µg/mL and 5.2 µg/mL
- XRPD [8]: Pattern 7*

Compound: CN[C@@H]1C[C@H]2O[C@@](C)([C@@H]1OC)n1c3ccccc3c3c4c(c5c6ccccc6n2c5c31)C(=O)NC4 [staurosporine]
- caspase 3/7 activation ([9]; 24 hours): robust caspase 3/7 activation
- IC50 ([9]; Homo sapiens, NCI-H526, 72 hours): 6 nM
- caspase 3/7 activation [10]: substantial increase
